Source: US20230406850A1, “CRYSTALLINE FORM OF HETEROCYCLIC COMPOUND, PREPARATION METHOD THEREFOR AND APPLICATION THEREOF” (WUHAN LL SCIENCE AND TECHNOLOGY DEVELOPMENT CO., LTD., priority 2020, published 2023)
Read-outs that look alike come from different tables or passages of the source.

Assay: Pharmacokinetics of crystalline form III, fasting and non-fasting
Format: in vivo, Beagle dog
Settings: for AUC(0-inf) / Cmax / MRT last / Tmax / half-life / AUC(0-t): beagle, dog, po, 100 mg/kg, 100 mg/kg po
Description: Beagle dog (general grade, Beijing Masi Biotechnology Co., Ltd.) was given compound A by single oral gavage to study the pharmacokinetics of the compound in plasma. The test drug (100 mg/kg dosage, 5 mL/kg administration volume) was given by gavage, and samples were collected at 10 minutes, 30 minutes, 1 hour, 2 hours, 4 hours, 6 hours, 8 hours, 10 hours, 24 hours and 48 hours after administration: peripheral venipuncture was performed, and about 1.0 mL whole blood was collected from each animal at every time point, and blood samples were collected. Within 60 minutes after blood collection, 0.2 mL of whole blood was separated into a cryopreservation tube, and deionized water was added at a ratio of 1:1, which was mixed upside down and then frozen. The remaining samples were centrifuged at 2,000 g at 2 to 8° C. for 10 min to obtain plasma samples, and the hemolysis of each sample was recorded, and the influence on detection was evaluated, and then the color of plasma was observed and recorded on the blood collection table (“−” means no hemolysis, “+” means pink supernatant and “++” means red supernatant).
The concentration of compound A in plasma was determined by LC-MS/MS method (Non-GLP). The pharmacokinetic parameters were calculated by WinNonlin (Phoenix™, version 8.1) or other similar software. If applicable plasma drug concentration-time data are available, the following pharmacokinetic parameters are calculated: CL (clearance), Vss (steady-state apparent volume of distribution), T1/2 (elimination half-life), Cmax (peak concentration), Tmax (peak time), AUC (area under the concentration-time curve), MRT (mean residence time). Pharmacokinetic data were described by descriptive statistics, such as mean, standard deviation and sample size.

[1] = female, whole blood, Non-fast, blood
[2] = female, whole blood, fast, blood
[3] = male, whole blood, Non-fast, blood

Structure (SMILES): COC(=O)N1CCO[C@@H](Cc2c(-c3c(F)cc(S(N)(=O)=O)cc3F)nc3cc(Cl)ccn23)C1 [Crystalline form III, methyl (S)-2-((7-chloro-2-(2,6-difluoro-4-sulfamoylphenyl)imidazo[1,2-a]pyridin-3-yl)methyl)morpholine-4-carboxylate]
- blood: plasma (fasting condition, female): 521%
- blood: plasma (fasting condition, male (first value)): 1452%
- plasma drug concentration, male relative to female (fasting condition, plasma): about 6 times
- whole blood drug concentration, male relative to female (fasting condition, whole blood): 1.9 times
- AUC(0-inf) (female, plasma, Non-fast): 466 µg·h/mL
- Cmax (female, plasma, Non-fast): 24000 ng/mL
- MRT last (female, plasma, Non-fast): 12.6 h
- Tmax (female, plasma, Non-fast): 7.33 h
- half-life (female, plasma, Non-fast): 5.14 h
- AUC(0-t) (female, plasma, Non-fast, plasma, female, read-out: AUC0-24 h): 378 µg·h/mL
- AUC(0-t) (female, plasma, Non-fast, plasma, female, read-out: AUClast): 465 µg·h/mL
- AUC(0-inf) (female, plasma, fast): 9.21 µg·h/mL
- Cmax (female, plasma, fast): 1680 ng/mL
- MRT last (female, plasma, fast): 8.06 h
- Tmax (female, plasma, fast): 1.33 h
- half-life (female, plasma, fast): 12 h
- AUC(0-t) (female, plasma, fast, plasma, female, read-out: AUC0-24 h): 7.54 µg·h/mL
- AUC(0-t) (female, plasma, fast, plasma, female, read-out: AUClast): 8.16 µg·h/mL
- AUC(0-inf) [1]: 955 µg·h/mL
- Cmax [1]: 23500 ng/mL
- MRT last [1]: 18.7 h
- Tmax [1]: 6 h
- half-life [1]: 25.1 h
- AUC(0-t) (female, whole blood, Non-fast, blood, female, read-out: AUC0-24 h): 432 µg·h/mL
- AUC(0-t) (female, whole blood, Non-fast, blood, female, read-out: AUClast): 675 µg·h/mL
- AUC(0-inf) [2]: 242 µg·h/mL
- Cmax [2]: 10300 ng/mL
- MRT last [2]: 14.1 h
- Tmax [2]: 1.83 h
- half-life [2]: 22.4 h
- AUC(0-t) (female, whole blood, fast, blood, female, read-out: AUC0-24 h): 134 µg·h/mL
- AUC(0-t) (female, whole blood, fast, blood, female, read-out: AUClast): 187 µg·h/mL
- AUC(0-inf) (male, plasma, Non-fast): 367 µg·h/mL
- Cmax (male, plasma, Non-fast): 18900 ng/mL
- MRT last (male, plasma, Non-fast): 11.8 h
- Tmax (male, plasma, Non-fast): 4.67 h
- half-life (male, plasma, Non-fast): 5.33 h
- AUC(0-t) (male, plasma, Non-fast, plasma, male, read-out: AUC0-24 h): 305 µg·h/mL
- AUC(0-t) (male, plasma, Non-fast, plasma, male, read-out: AUClast): 366 µg·h/mL
- AUC(0-inf) (male, plasma, fast): 40.2 µg·h/mL
- Cmax (male, plasma, fast): 5700 ng/mL
- MRT last (male, plasma, fast): 13.6 h
- Tmax (male, plasma, fast): 9 h
- AUC(0-t) (male, plasma, fast, plasma, male, read-out: AUC0-24 h): 48.8 µg·h/mL
- AUC(0-t) (male, plasma, fast, plasma, male, read-out: AUClast): 81.4 µg·h/mL
- AUC(0-inf) [3]: 818 µg·h/mL
- Cmax [3]: 19000 ng/mL
- MRT last [3]: 18.9 h
- Tmax [3]: 4.67 h
- half-life [3]: 28.6 h
- AUC(0-t) (male, whole blood, Non-fast, blood, male, read-out: AUC0-24 h): 353 µg·h/mL
- AUC(0-t) (male, whole blood, Non-fast, blood, male, read-out: AUClast): 557 µg·h/mL
- AUC(0-inf) (male, whole blood, fast, blood): 521 µg·h/mL
- Cmax (male, whole blood, fast, blood): 14600 ng/mL
- MRT last (male, whole blood, fast, blood): 19.5 h
- Tmax (male, whole blood, fast, blood): 9.33 h
- half-life (male, whole blood, fast, blood): 14.9 h
- AUC(0-t) (male, whole blood, fast, blood, male, read-out: AUC0-24 h): 255 µg·h/mL
- AUC(0-t) (male, whole blood, fast, blood, male, read-out: AUClast): 449 µg·h/mL
- blood: plasma (non-fasting condition, female): 116%
- blood: plasma (non-fasting condition, male (first value)): 114%
